Data taken from PubChem BioAssay AID254 (DTP/NCI, 2004).
Several values for one entry are separate records, joined by “and”; a condition that tells them apart may be missing. Identical values can stand only once. Inconclusive results and toxic doses are left out.

Test system: L1210 leukemia iv in BDF1 mice, survival T/C
Assay: NCI In Vivo Anticancer Drug Screen. Data for tumor model L1210 Leukemia (intravenous) in B6D2F1 (BDF1) mice
Conditions: endpoint: mean survival time, higher = longer survival
Protocol: The antitumor activity of compounds was measured in mice bearing transplantable tumors. Survival or tumor size were measured and the results are expressed as the measurement made in the treated group (T) divided by the measurement made in the vehicle treated control group (C). The tumor model used in this assay is L1210 Leukemia (intravenous) in B6D2F1 (BDF1) mice

## COc1cc([C@@H]2c3cc4c(cc3[C@@H](OC3OC5COC(C)OC5C(O)C3O)[C@H]3COC(=O)[C@H]23)OCO4)cc(OC)c1O (stereo not given in full)
dose: 12.0 mg/kg/injection, schedule: Q04DX003 (ip), vehicle: saline
  T/C: 117 % of control
dose: 40.0 mg/kg/injection, schedule: Q04DX003 (ip), vehicle: saline
  T/C: 297 % of control
dose: 60.0 mg/kg/injection, schedule: Q04DX003 (ip), vehicle: saline
  T/C: 447 % of control

## O=NN(CCF)C(=O)NCCCl
dose: 9.0 mg/kg/injection, schedule: Q01DX001 (ip), vehicle: Klucel (hydroxypropylcellulose) (HPC)
  T/C: 197 % of control and 294 % of control
dose: 14.0 mg/kg/injection, schedule: Q01DX001 (ip), vehicle: Klucel (hydroxypropylcellulose) (HPC)
  T/C: 226 % of control and 270 % of control
dose: 21.0 mg/kg/injection, schedule: Q01DX001 (ip), vehicle: Klucel (hydroxypropylcellulose) (HPC)
  T/C: 342 % of control and 307 % of control
dose: 32.0 mg/kg/injection, schedule: Q01DX001 (ip), vehicle: Klucel (hydroxypropylcellulose) (HPC)
  T/C: 603 % of control and 323 % of control

## O=P1(N(CCCl)CCCl)NCCCO1 (stereo not given)
dose: 28.0 mg/kg/injection, schedule: Q01DX001 (ip), vehicle: saline
  T/C: 106 % of control and 109 % of control
dose: 60.0 mg/kg/injection, schedule: Q01DX001 (ip), vehicle: saline
  T/C: 155 % of control and 165 % of control
dose: 64.0 mg/kg/injection, schedule: Q01DX001 (ip), vehicle: saline
  T/C: 169 % of control
dose: 75.0 mg/kg/injection, schedule: Q01DX001 (ip), vehicle: saline
  T/C: 154 % of control and 164 % of control and 171 % of control
dose: 80.0 mg/kg/injection, schedule: Q01DX001 (ip), vehicle: saline
  T/C: 158 % of control and 165 % of control
dose: 80.0 mg/kg/injection, schedule: Q04DX004 (ip), vehicle: saline
  T/C: 206 % of control
dose: 83.0 mg/kg/injection, schedule: Q01DX001 (ip), vehicle: saline
  T/C: 170 % of control
dose: 118.0 mg/kg/injection, schedule: Q01DX001 (ip), vehicle: saline
  T/C: 162 % of control and 202 % of control
dose: 120.0 mg/kg/injection, schedule: Q04DX004 (ip), vehicle: saline
  T/C: 285 % of control
dose: 225.0 mg/kg/injection, schedule: Q01DX001 (ip), vehicle: saline
  T/C: 390 % of control and 290 % of control and 304 % of control
dose: 234.0 mg/kg/injection, schedule: Q01DX001 (ip), vehicle: saline
  T/C: 522 % of control and 302 % of control
dose: 468.0 mg/kg/injection, schedule: Q01DX001 (ip), vehicle: saline
  T/C: 500 % of control

## O=NN(CCF)C(=O)NC1CSCSC1
dose: 3.7 mg/kg/injection, schedule: Q01DX001 (ip), vehicle: other
  T/C: 124 % of control
dose: 7.0 mg/kg/injection, schedule: Q01DX001 (ip), vehicle: other
  T/C: 186 % of control and 204 % of control
dose: 15.0 mg/kg/injection, schedule: Q01DX001 (ip), vehicle: other
  T/C: 351 % of control and 417 % of control
dose: 31.0 mg/kg/injection, schedule: Q01DX001 (ip), vehicle: other
  T/C: 582 % of control and 744 % of control
dose: 62.0 mg/kg/injection, schedule: Q01DX001 (ip), vehicle: other
  T/C: 433 % of control and 846 % of control

## O=NN(CCCl)C(=O)NC1C2CC3CC(C2)CC1C3 (stereo not given)
dose: 22.0 mg/kg/injection, schedule: Q01DX001 (ip), vehicle: other
  T/C: 107 % of control and 118 % of control
dose: 45.0 mg/kg/injection, schedule: Q01DX001 (ip), vehicle: other
  T/C: 160 % of control
dose: 91.0 mg/kg/injection, schedule: Q01DX001 (ip), vehicle: other
  T/C: 156 % of control
dose: 181.0 mg/kg/injection, schedule: Q01DX001 (ip), vehicle: other
  T/C: 166 % of control and 229 % of control
dose: 362.0 mg/kg/injection, schedule: Q01DX001 (ip), vehicle: other
  T/C: 440 % of control and 514 % of control

## O=NN(CCF)C(=O)NC1CCS(=O)(=O)CC1
dose: 4.8 mg/kg/injection, schedule: Q01DX001 (oral), vehicle: other
  T/C: 185 % of control and 225 % of control
dose: 6.0 mg/kg/injection, schedule: Q01DX001 (ip), vehicle: other
  T/C: 190 % of control and 213 % of control
dose: 11.0 mg/kg/injection, schedule: Q01DX001 (oral), vehicle: other
  T/C: 429 % of control and 504 % of control
dose: 12.0 mg/kg/injection, schedule: Q01DX001 (ip), vehicle: other
  T/C: 365 % of control and 518 % of control
dose: 21.0 mg/kg/injection, schedule: Q01DX001 (oral), vehicle: other
  T/C: 562 % of control and 817 % of control
dose: 24.0 mg/kg/injection, schedule: Q01DX001 (ip), vehicle: other
  T/C: 620 % of control and 688 % of control
dose: 40.0 mg/kg/injection, schedule: Q01DX001 (oral), vehicle: other
  T/C: 436 % of control and 569 % of control
dose: 48.0 mg/kg/injection, schedule: Q01DX001 (ip), vehicle: other
  T/C: 517 % of control and 590 % of control

## O=NN(CCCl)C(=O)NC1CCCCC1
dose: 5.1 mg/kg/injection, schedule: Q01DX001 (ip), vehicle: carboxymethylcellulose (CMC)
  T/C: 102 % of control
dose: 10.0 mg/kg/injection, schedule: Q04DX004 (ip), vehicle: carboxymethylcellulose (CMC)
  T/C: 124 % of control
dose: 15.0 mg/kg/injection, schedule: Q01DX001 (ip), vehicle: Klucel (hydroxypropylcellulose) (HPC)
  T/C: 170 % of control
dose: 16.0 mg/kg/injection, schedule: Q04DX004 (ip), vehicle: carboxymethylcellulose (CMC)
  T/C: 160 % of control
dose: 16.6 mg/kg/injection, schedule: Q01DX001 (ip), vehicle: carboxymethylcellulose (CMC)
  T/C: 163 % of control and 174 % of control
dose: 17.0 mg/kg/injection, schedule: Q01DX001 (ip), vehicle: carboxymethylcellulose (CMC)
  T/C: 176 % of control
dose: 18.0 mg/kg/injection, schedule: Q01DX001 (ip), vehicle: Klucel (hydroxypropylcellulose) (HPC)
  T/C: 177 % of control
dose: 21.0 mg/kg/injection, schedule: Q01DX001 (ip), vehicle: carboxymethylcellulose (CMC)
  T/C: 218 % of control and 241 % of control
dose: 22.0 mg/kg/injection, schedule: Q01DX001 (ip), vehicle: Klucel (hydroxypropylcellulose) (HPC)
  T/C: 227 % of control
dose: 22.0 mg/kg/injection, schedule: Q01DX001 (ip), vehicle: carboxymethylcellulose (CMC)
  T/C: 192 % of control and 225 % of control
dose: 22.0 mg/kg/injection, schedule: Q04DX004 (ip), vehicle: carboxymethylcellulose (CMC)
  T/C: 360 % of control
dose: 27.0 mg/kg/injection, schedule: Q01DX001 (ip), vehicle: Klucel (hydroxypropylcellulose) (HPC)
  T/C: 161 % of control
dose: 30.0 mg/kg/injection, schedule: Q01DX001 (ip), vehicle: carboxymethylcellulose (CMC)
  T/C: 346 % of control
dose: 33.0 mg/kg/injection, schedule: Q04DX004 (ip), vehicle: carboxymethylcellulose (CMC)
  T/C: 709 % of control
dose: 33.5 mg/kg/injection, schedule: Q01DX001 (ip), vehicle: Klucel (hydroxypropylcellulose) (HPC)
  T/C: 574 % of control
dose: 37.5 mg/kg/injection, schedule: Q01DX001 (ip), vehicle: carboxymethylcellulose (CMC)
  T/C: 534 % of control and 560 % of control and 606 % of control
dose: 40.0 mg/kg/injection, schedule: Q01DX001 (ip), vehicle: Klucel (hydroxypropylcellulose) (HPC)
  T/C: 222 % of control
dose: 40.0 mg/kg/injection, schedule: Q01DX001 (ip), vehicle: carboxymethylcellulose (CMC)
  T/C: 368 % of control
dose: 42.0 mg/kg/injection, schedule: Q01DX001 (ip), vehicle: Klucel (hydroxypropylcellulose) (HPC)
  T/C: 438 % of control
dose: 43.0 mg/kg/injection, schedule: Q01DX001 (ip), vehicle: carboxymethylcellulose (CMC)
  T/C: 633 % of control and 707 % of control
dose: 50.0 mg/kg/injection, schedule: Q01DX001 (ip), vehicle: Klucel (hydroxypropylcellulose) (HPC)
  T/C: 407 % of control
dose: 56.0 mg/kg/injection, schedule: Q01DX001 (ip), vehicle: Klucel (hydroxypropylcellulose) (HPC)
  T/C: 464 % of control
dose: 60.0 mg/kg/injection, schedule: Q01DX001 (ip), vehicle: Klucel (hydroxypropylcellulose) (HPC)
  T/C: 336 % of control
dose: 62.5 mg/kg/injection, schedule: Q01DX001 (ip), vehicle: carboxymethylcellulose (CMC)
  T/C: 652 % of control and 662 % of control and 775 % of control
dose: 70.0 mg/kg/injection, schedule: Q01DX001 (ip), vehicle: Klucel (hydroxypropylcellulose) (HPC)
  T/C: 519 % of control
dose: 75.0 mg/kg/injection, schedule: Q01DX001 (ip), vehicle: carboxymethylcellulose (CMC)
  T/C: 826 % of control
dose: 86.0 mg/kg/injection, schedule: Q01DX001 (ip), vehicle: carboxymethylcellulose (CMC)
  T/C: 242 % of control and 297 % of control
dose: 90.0 mg/kg/injection, schedule: Q01DX001 (ip), vehicle: Klucel (hydroxypropylcellulose) (HPC)
  T/C: 522 % of control

## CC[C@]1(O)C[C@H]2CN(CCc3c([nH]c4ccccc34)[C@@](C(=O)OC)(c3cc4c(cc3OC)N(C=O)[C@H]3[C@@](O)(C(=O)OC)[C@H](OC(C)=O)[C@]5(CC)C=CCN6CC[C@]43[C@@H]65)C2)C1
dose: 0.32 mg/kg/injection, schedule: Q01DX001 (ip), vehicle: saline
  T/C: 112 % of control
dose: 0.75 mg/kg/injection, schedule: Q01DX001 (ip), vehicle: saline
  T/C: 108 % of control
dose: 1.5 mg/kg/injection, schedule: Q01DX001 (ip), vehicle: saline
  T/C: 114 % of control
dose: 1.6 mg/kg/injection, schedule: Q01DX001 (ip), vehicle: saline
  T/C: 109 % of control
dose: 2.25 mg/kg/injection, schedule: Q01DX001 (ip), vehicle: saline
  T/C: 119 % of control
